Tests used:
Test in all cases: relative viability (nuclei count vs DMSO), 5 days (fraction); higher = more cells survive
Selisistat = compound: C1CC(C2=C(C1)C3=C(N2)C=CC(=C3)Cl)C(=O)N [Selisistat]
In short: (§1)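 Lung cancer cell lines received five library-drug doses (not always all listed) spaced by √10, pinned on vehicle-anchored 1536-well plates after an overnight stay at 37 °C. Five days later, with no medium change, nuclei were Hoechst-stained, imaged at 4× and counted with MetaXpress. Viability is treated-well nuclei relative to vehicle-well nuclei, as a median across plates. Passing plates had control CV below 25% and at least one doubling.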

Serdemetan = compound: c1ccc2c(CCNc3ccc(Nc4ccncc4)cc3)c[nH]c2c1 [Serdemetan]
In short: as §1

Selisistat + Trametinib = compound: C1CC(C2=C(C1)C3=C(N2)C=CC(=C3)Cl)C(=O)N [Selisistat] + CC(=O)Nc1cccc(-n2c(=O)n(C3CC3)c(=O)c3c(Nc4ccc(I)cc4F)n(C)c(=O)c(C)c32)c1 [Trametinib] (partner 0.02 µM)
In short: (§2)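 For relative viability, nuclei counts in treated wells were divided by those in vehicle wells. Lung cancer cell lines had been pin-tool dosed in 1536-well plates the day after seeding and cultured for 5 days, then fixed and stained in one step (final 0.05% Triton X-100, 1% formaldehyde, 1 ug/ml Hoechst) and imaged at 4×. Doses were one drug alone or a fixed anchor-drug dose plus five library-drug doses (not always all listed) in √10 steps, and values are duplicate-plate medians.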

Serdemetan + Navitoclax = compound: c1ccc2c(CCNc3ccc(Nc4ccncc4)cc3)c[nH]c2c1 [Serdemetan] + CC1(C)CCC(c2ccc(Cl)cc2)=C(CN2CCN(c3ccc(C(=O)NS(=O)(=O)c4ccc(N[C@H](CCN5CCOCC5)CSc5ccccc5)c(S(=O)(=O)C(F)(F)F)c4)cc3)CC2)C1 [Navitoclax] (partner 0.5 µM)
In short: as §2

Row | Cell Line | relative viability (Selisistat; 0.4 µM) | relative viability (Selisistat; 1.265 µM) | relative viability (Selisistat; 4 µM) | relative viability (Selisistat; 12.65 µM) | relative viability (Selisistat; 40 µM) | relative viability (Serdemetan; 0.04 µM) | relative viability (Serdemetan; 0.1265 µM) | relative viability (Serdemetan; 0.4 µM) | relative viability (Serdemetan; 1.265 µM) | relative viability (Serdemetan; 4 µM) | relative viability (Selisistat + Trametinib; first compound 0.4 µM) | relative viability (Selisistat + Trametinib; first compound 1.265 µM) | relative viability (Selisistat + Trametinib; first compound 4 µM) | relative viability (Selisistat + Trametinib; first compound 12.65 µM) | relative viability (Selisistat + Trametinib; first compound 40 µM) | relative viability (Serdemetan + Navitoclax; first compound 0.04 µM) | relative viability (Serdemetan + Navitoclax; first compound 0.1265 µM) | relative viability (Serdemetan + Navitoclax; first compound 0.4 µM) | relative viability (Serdemetan + Navitoclax; first compound 1.265 µM) | relative viability (Serdemetan + Navitoclax; first compound 4 µM)
1 | NCI-H460 | 0.986 | 0.961 | 0.933 | 0.968 | 1.03 | 0.936 | 0.962 | 0.926 | 0.77 | 0.316 | 0.129 | 0.128 | 0.0976 | 0.117 | 0.142 | 1.03 | 1.04 | 1.13 | 0.303 | 0.0983
2 | NCI-H1666 | 1.06 | 0.933 | 0.877 | 1.04 | 0.966 | 0.985 | 0.946 | 0.934 | 0.634 | 0.781 | 0.839 | 0.833 | 0.987 | 0.839 | 0.83 | 0.913 | 0.941 | 0.877 | 0.726 | 0.83
3 | NCI-H1651 | 0.995 | 0.958 | 0.893 | 0.924 | 0.949 | 0.847 | 0.899 | 0.832 | 0.507 | 0.399 | 0.855 | 0.871 | 0.799 | 0.842 | 0.817 | 0.826 | 0.808 | 0.557 | 0.256 | 0.226
4 | NCI-H1755 | 1.08 | 1.1 | 0.977 | 1.01 | 1.08 | 1 | 0.975 | 0.959 | 0.775 | 0.763 | 0.83 | 0.883 | 0.783 | 0.764 | 0.841 | 0.973 | 0.976 | 0.867 | 0.527 | 0.448
5 | HARA | 0.955 | 0.938 | 0.749 | 0.964 | 1.07 | 0.938 | 1.01 | 0.937 | 0.757 | 0.877 | 0.659 | 0.962 | – | 0.509 | 0.377 | 1.12 | 1.11 | 1.09 | – | 0.757
6 | NCI-H596 | 1.08 | 0.994 | 0.849 | 1.03 | 0.983 | 1.03 | 0.981 | 0.989 | 0.76 | 0.768 | 0.864 | 0.843 | 0.831 | 0.733 | 0.813 | 0.967 | 0.922 | 0.741 | 0.465 | 0.34
7 | NCI-H23 | 0.989 | 0.941 | – | 0.906 | 1.08 | 0.972 | 1.17 | 1.11 | 0.817 | 1.04 | 0.402 | 0.318 | – | 0.427 | 0.485 | 0.887 | 0.848 | 0.996 | 0.809 | 0.623
8 | LCLC-97TM1 | 0.941 | 0.933 | – | 0.962 | 1.09 | 1.08 | 0.975 | 0.925 | 0.802 | 0.894 | 0.192 | 0.208 | – | 0.163 | 0.217 | 0.472 | 0.32 | 0.278 | 0.364 | 0.377

— the supplement of paper PMC10307832
